The source of these data is US8188270B2, “Polymorphous form of 5-chloro-N-({(5S)-2-oxo-3[4-(3-oxo-4-morpholinyl)-phenyl]-1,3-oxazolidine-5-yl}-methyl)-2-thiophene carboxamide” (Bayer Schering Pharma Aktiengesellschaft, priority 2005, dated 2012).

The data set is described as follows: Solubility comparison of crystal modifications of the compound of the formula (I). The format is physicochemical. The conditions noted are these: modification II versus known modification (modification I).

On to `O=C(NC[C@H]1CN(c2ccc(N3CCOCC3=O)cc2)C(=O)O1)c1ccc(Cl)s1` [modification II, 5-chloro-N-({(5S)-2-oxo-3-[4-(3-oxo-4-morpholinyl)-phenyl]-1,3-oxazolidin-5-yl}-methyl)-2-thiophenecarboxamide], for which the “solubility in comparison to the known modification” value was “higher solubility”.
